pIC50: −log10 of the molar value.
Assays:
BRG-1 = target: T1, BRG-1 (Homo sapiens, UniProt P51532); assay: ATPase catalytic activity of BRG-1, ADP-Glo in vitro biochemical assay; conditions: ATPase catalytic activity, 30 nM BRG-1, 400 μM ATP, read-out: BRG1 IP50
T1 construct: made in house; host or cells: High Five insect cells

BRM = target: T2, BRM (Homo sapiens, UniProt P51531); assay: ATPase catalytic activity of BRM, ADP-Glo in vitro biochemical assay; conditions: ATPase catalytic activity, 30 nM BRM, 400 μM ATP, read-out: BRM IP50
T2 construct: made in house; host or cells: High Five insect cells
T2 sequence (P51531 whole entry): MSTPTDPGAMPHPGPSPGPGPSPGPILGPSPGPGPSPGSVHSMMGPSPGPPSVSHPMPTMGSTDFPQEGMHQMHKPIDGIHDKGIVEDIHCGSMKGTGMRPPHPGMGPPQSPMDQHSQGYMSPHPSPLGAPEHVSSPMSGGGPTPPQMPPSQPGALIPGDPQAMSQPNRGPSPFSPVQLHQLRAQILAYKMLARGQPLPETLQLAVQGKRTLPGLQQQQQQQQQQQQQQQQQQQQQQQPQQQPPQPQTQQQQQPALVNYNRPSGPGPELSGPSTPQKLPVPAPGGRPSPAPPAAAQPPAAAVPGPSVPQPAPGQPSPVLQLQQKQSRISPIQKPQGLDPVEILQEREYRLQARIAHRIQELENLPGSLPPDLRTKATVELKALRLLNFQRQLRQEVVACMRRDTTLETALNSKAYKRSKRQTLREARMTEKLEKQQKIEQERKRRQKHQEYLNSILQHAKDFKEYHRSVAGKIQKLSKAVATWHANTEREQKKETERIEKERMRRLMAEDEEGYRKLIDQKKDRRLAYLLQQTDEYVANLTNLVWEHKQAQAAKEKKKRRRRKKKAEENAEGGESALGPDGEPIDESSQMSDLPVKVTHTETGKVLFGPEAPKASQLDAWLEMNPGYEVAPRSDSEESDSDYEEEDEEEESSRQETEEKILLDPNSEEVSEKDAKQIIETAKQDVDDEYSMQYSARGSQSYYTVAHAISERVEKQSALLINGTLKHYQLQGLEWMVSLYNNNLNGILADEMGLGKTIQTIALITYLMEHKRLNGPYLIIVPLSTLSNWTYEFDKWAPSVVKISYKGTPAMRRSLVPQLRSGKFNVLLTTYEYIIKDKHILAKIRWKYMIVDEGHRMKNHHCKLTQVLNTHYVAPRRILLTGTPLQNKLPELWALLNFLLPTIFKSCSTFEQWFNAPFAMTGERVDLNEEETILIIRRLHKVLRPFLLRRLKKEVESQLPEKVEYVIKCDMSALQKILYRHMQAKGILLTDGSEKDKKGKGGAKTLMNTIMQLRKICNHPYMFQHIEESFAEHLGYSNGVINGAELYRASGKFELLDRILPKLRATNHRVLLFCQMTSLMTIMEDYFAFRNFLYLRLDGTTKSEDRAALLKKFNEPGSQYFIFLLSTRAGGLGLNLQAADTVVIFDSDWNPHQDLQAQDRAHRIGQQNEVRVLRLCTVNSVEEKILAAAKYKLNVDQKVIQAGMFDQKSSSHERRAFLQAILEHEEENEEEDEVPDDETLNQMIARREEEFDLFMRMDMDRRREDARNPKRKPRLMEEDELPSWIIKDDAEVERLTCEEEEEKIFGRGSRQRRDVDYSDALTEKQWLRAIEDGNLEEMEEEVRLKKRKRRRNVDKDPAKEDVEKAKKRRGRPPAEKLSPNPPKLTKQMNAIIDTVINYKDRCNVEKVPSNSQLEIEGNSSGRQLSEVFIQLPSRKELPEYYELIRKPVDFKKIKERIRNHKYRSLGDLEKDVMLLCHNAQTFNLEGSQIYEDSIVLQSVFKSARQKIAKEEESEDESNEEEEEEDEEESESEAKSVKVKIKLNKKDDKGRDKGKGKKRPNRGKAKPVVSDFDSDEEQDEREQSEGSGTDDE

T1 sequence (P51532 whole entry): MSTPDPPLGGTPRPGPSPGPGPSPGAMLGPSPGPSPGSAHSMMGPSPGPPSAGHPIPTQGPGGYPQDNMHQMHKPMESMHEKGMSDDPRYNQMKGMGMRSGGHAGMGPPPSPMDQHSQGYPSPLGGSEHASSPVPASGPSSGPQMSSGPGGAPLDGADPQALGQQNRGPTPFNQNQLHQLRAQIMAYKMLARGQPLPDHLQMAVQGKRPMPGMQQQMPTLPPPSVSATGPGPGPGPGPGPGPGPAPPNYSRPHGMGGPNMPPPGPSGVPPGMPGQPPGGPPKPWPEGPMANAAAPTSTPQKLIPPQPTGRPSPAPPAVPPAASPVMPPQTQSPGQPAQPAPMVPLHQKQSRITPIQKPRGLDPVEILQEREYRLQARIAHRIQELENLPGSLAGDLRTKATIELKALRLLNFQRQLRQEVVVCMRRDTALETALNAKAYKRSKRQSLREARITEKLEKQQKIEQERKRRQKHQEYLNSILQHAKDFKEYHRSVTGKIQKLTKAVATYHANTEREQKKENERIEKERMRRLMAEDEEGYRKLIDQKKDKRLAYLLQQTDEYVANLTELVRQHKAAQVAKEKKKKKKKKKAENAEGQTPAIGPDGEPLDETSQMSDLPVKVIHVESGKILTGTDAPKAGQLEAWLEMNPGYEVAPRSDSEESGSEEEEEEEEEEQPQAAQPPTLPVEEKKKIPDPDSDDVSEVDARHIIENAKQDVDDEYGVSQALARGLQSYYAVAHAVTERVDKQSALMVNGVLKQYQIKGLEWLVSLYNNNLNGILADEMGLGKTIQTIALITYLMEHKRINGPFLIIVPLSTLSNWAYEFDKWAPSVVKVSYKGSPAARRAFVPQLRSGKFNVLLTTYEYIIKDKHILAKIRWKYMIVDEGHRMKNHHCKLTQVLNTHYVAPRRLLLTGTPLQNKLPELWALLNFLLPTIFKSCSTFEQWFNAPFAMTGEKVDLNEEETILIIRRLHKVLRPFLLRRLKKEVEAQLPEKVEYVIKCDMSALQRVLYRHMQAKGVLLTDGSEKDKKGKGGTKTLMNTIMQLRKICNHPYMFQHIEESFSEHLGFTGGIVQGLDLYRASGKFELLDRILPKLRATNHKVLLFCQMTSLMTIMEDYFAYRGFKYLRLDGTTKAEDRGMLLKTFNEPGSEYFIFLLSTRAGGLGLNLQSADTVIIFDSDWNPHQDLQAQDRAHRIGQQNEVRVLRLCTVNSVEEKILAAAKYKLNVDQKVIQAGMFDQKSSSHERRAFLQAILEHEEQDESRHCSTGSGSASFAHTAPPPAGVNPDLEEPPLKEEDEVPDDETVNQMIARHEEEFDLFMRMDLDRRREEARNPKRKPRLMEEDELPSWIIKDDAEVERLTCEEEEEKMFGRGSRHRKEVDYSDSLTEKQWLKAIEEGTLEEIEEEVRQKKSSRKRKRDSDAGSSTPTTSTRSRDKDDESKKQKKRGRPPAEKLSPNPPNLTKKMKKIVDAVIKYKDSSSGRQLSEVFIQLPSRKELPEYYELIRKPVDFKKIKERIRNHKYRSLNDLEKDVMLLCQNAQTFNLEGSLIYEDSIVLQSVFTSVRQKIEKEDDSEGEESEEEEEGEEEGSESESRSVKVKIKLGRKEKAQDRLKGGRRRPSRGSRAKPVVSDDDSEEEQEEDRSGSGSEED

SMILES	pIC50 (BRG-1)	pIC50 (BRM)
C[C@H](NC(=O)c1ccn(S(C)(=O)=O)c1)C(=O)Nc1nc(-c2cccc(-c3ccn(C)n3)c2)cs1 [Compound 591]	< 8.00	< 8.00
COC[C@H](NC(=O)c1ccn(S(C)(=O)=O)c1)C(=O)Nc1nc(-c2ccc(F)c(OC(F)(F)F)c2)cs1 [Compound 592]	< 8.00	< 8.00
N#CC1(n2ccc(C(=O)NCC(=O)Nc3nc(-c4cccc(N5CCC5)n4)cs3)c2)COC1 [Compound 595]	< 8.00	< 8.00
COC[C@H](NC(=O)c1ccn(S(C)(=O)=O)c1)C(=O)Nc1nc(-c2ccc3c(c2)OCO3)cs1 [Compound 596]	< 8.00	> 8.00
COC[C@H](NC(=O)c1ccn(S(C)(=O)=O)c1)C(=O)Nc1nc(-c2cccc([C@@H]3CC3(F)F)c2)cs1 [Compound 598]	< 8.00	< 8.00
N#CC1(n2ccc(C(=O)NCC(=O)Nc3nc(-c4cccc(N5CCC5)c4)cs3)c2)COC1 [Compound 601]	< 8.00	> 8.00
COC[C@H](NC(=O)c1ccn(C(C)(C)C)c1)C(=O)Nc1nc(-c2ccc3ccn(C4COC4)c(=O)c3c2)cs1 [Compound 603]	> 8.00	> 8.00
CCO[C@H](NC(=O)c1ccn(S(C)(=O)=O)c1)C(=O)Nc1nc(-c2cccc([C@H]3CC3(F)F)n2)cs1 [Compound 606]	< 7.00	< 8.00
CS(=O)(=O)n1ccc(C(=O)NCC(=O)Nc2nc(-c3cc(Cl)c4c(c3)OCO4)cs2)c1 [Compound 607]	< 8.00	< 8.00
CS(=O)(=O)n1ccc(C(=O)NCC(=O)Nc2nc(-c3cccc([C@@H]4CC4(F)F)n3)cs2)c1 [Compound 608]	< 7.00	< 8.00
COC[C@H](NC(=O)c1ccn(S(C)(=O)=O)c1)C(=O)Nc1nc(-c2cc(F)cc(OC3CC3)c2)cs1 [Compound 610]	< 8.00	< 8.00
COC[C@H](NC(=O)c1ccn(C(C)(C)C)c1)C(=O)Nc1nc(-c2cnc3ccn(C)c(=O)c3c2)cs1 [Compound 611]	< 8.00	< 8.00
CS(=O)(=O)n1ccc(C(=O)NCC(=O)Nc2nc(-c3ccc(F)c(OC4CC4)n3)cs2)c1 [Compound 614]	< 8.00	< 8.00
COC[C@H](NC(=O)c1ccn(C(C)(C)C#N)c1)C(=O)Nc1nc(-c2cccc(-c3cnn(C)n3)c2)cs1 [Compound 615]	> 8.00	> 8.00
CS(=O)(=O)n1ccc(C(=O)NCC(=O)Nc2nc(-c3ccc4c(c3)CCO4)cs2)c1 [Compound 619]	< 8.00	> 8.00
CC(C)(C)n1ccc(C(=O)NCC(=O)Nc2nc(-c3cccc(N4CCC5(COC5)C4)n3)cs2)c1 [Compound 620]	< 8.00	< 8.00
C[C@@H]1CN(c2cccc(-c3csc(NC(=O)CNC(=O)c4ccn([C@@]5(C)CC5(F)F)c4)n3)n2)C[C@H](C)O1 [Compound 621]	< 7.00	< 7.00
C[C@@H]1CN(c2cccc(-c3csc(NC(=O)CNC(=O)c4ccn([C@]5(C)CC5(F)F)c4)n3)n2)C[C@H](C)O1 [Compound 622]	< 8.00	> 8.00
CN(C)[C@H]1CCN(c2cccc(-c3csc(NC(=O)CNC(=O)c4ccn(C(C)(C)C)c4)n3)n2)C1 [Compound 623]	< 7.00	< 7.00

SMILES	pIC50 (BRG-1)	pIC50 (BRM)
CC(C)(C)n1ccc(C(=O)NCC(=O)Nc2nc(-c3cccc(N4CCC5(CCOCC5)C4)n3)cs2)c1 [Compound 624]	< 7.00	< 7.00
CC1CN(c2cccc(-c3csc(NC(=O)CNC(=O)c4ccn(C(C)(C)C)c4)n3)n2)C1 [Compound 625]	< 7.00	< 7.00
CC(C)(C)n1ccc(C(=O)NCC(=O)Nc2nc(-c3cccc(N4CCC5(CCOC5)CC4)n3)cs2)c1 [Compound 626]	< 7.00	< 7.00
CC(C)(C)n1ccc(C(=O)NCC(=O)Nc2nc(-c3cccc(N4CCN(c5cccnn5)CC4)n3)cs2)c1 [Compound 627]	< 7.00	< 8.00
CC(C)(C)n1ccc(C(=O)NCC(=O)Nc2nc(-c3cccc(N4CCC5(CC4)CC(F)C5)n3)cs2)c1 [Compound 628]	< 7.00	< 7.00
CC(C)(C)n1ccc(C(=O)NCC(=O)Nc2nc(-c3cccc(N4CC(N5CCS(=O)(=O)CC5)C4)n3)cs2)c1 [Compound 629]	< 7.00	< 7.00
Cc1nnc(C2CCN(c3cccc(-c4csc(NC(=O)CNC(=O)c5ccn(C(C)(C)C)c5)n4)n3)CC2)o1 [Compound 630]	< 8.00	< 8.00
CC(C)(C)n1ccc(C(=O)NCC(=O)Nc2nc(-c3cccc(N4CCC5(CCCCO5)C4)n3)cs2)c1 (stereo not drawn) [Compound 631]	< 8.00	< 8.00
CC(C)(C)n1ccc(C(=O)NCC(=O)Nc2nc(-c3cccc(N4CCC(OC(F)F)C4)n3)cs2)c1 (stereo not drawn) [Compound 633]	< 8.00	< 8.00
CC(C)(C)n1ccc(C(=O)NCC(=O)Nc2nc(-c3cccc(N4CC[C@@H](N5CCOCC5)[C@@H](F)C4)n3)cs2)c1 [Compound 635]	< 7.00	< 7.00
CCC(=O)N1CCN(c2cccc(-c3csc(NC(=O)CNC(=O)c4ccn(C(C)(C)C)c4)n3)n2)CC1 [Compound 639]	< 8.00	< 8.00
CN(C)C(=O)N1CCN(c2cccc(-c3csc(NC(=O)CNC(=O)c4ccn(C(C)(C)C)c4)n3)n2)CC1 [Compound 640]	< 7.00	< 8.00
CCOC1CCN(c2cccc(-c3csc(NC(=O)CNC(=O)c4ccn(C(C)(C)C)c4)n3)n2)CC1 [Compound 642]	< 7.00	< 7.00
CC(C)(C)n1ccc(C(=O)NCC(=O)Nc2nc(-c3cccc(N4CC5(COC5)C4)n3)cs2)c1 [Compound 644]	< 7.00	< 7.00
CC(C)(C)n1ccc(C(=O)NCC(=O)Nc2nc(-c3cccc(N4CC[C@@H](F)C4)n3)cs2)c1 [Compound 647]	< 8.00	< 8.00
C[C@@]1(n2ccc(C(=O)NCC(=O)Nc3nc(-c4cccc(N5CCC5)c4)cs3)c2)CC1(F)F [Compound 651]	< 6.00	< 7.00
C[C@]1(n2ccc(C(=O)NCC(=O)Nc3nc(-c4cccc(N5CCC5)c4)cs3)c2)CC1(F)F [Compound 652]	< 8.00	< 8.00
C[C@H]1CCN(c2cccc(-c3csc(NC(=O)CNC(=O)c4ccn(C(C)(C)C)c4)n3)n2)C1 [Compound 654]	< 8.00	< 8.00

Results, then the compound that gave them:

pIC50 (BRG-1)	pIC50 (BRM)	SMILES
< 8.00	< 8.00	COC[C@H](NC(=O)c1ccn(S(C)(=O)=O)c1)C(=O)Nc1nc(-c2cc(F)cc(OC(F)(F)F)c2)cs1 [Compound 593]
< 8.00	< 8.00	COC[C@H](NC(=O)c1ccn(S(C)(=O)=O)c1)C(=O)Nc1nc(-c2cccc([C@H]3CC3(F)F)c2)cs1 [Compound 599]
> 8.00	> 8.00	C[C@@H]1CN(c2cccc(-c3csc(NC(=O)[C@H](C)NC(=O)c4ccn(C5(C#N)COC5)c4)n3)n2)C[C@H](C)O1 [Compound 600]
> 8.00	> 8.00	C[C@@H]1CN(c2cccc(-c3csc(NC(=O)CNC(=O)c4ccn(C5(C#N)COC5)c4)n3)n2)C[C@H](C)O1 [Compound 602]
< 8.00	< 8.00	CS(=O)(=O)n1ccc(C(=O)NCC(=O)Nc2nc(-c3cccc([C@H]4CC4(F)F)n3)cs2)c1 [Compound 609]
< 8.00	< 8.00	CS(=O)(=O)n1ccc(C(=O)NCC(=O)Nc2nc(-c3ccc(F)c(OC4CC4)c3F)cs2)c1 [Compound 612]
< 7.00	< 8.00	COC[C@H](NC(=O)c1ccn(S(C)(=O)=O)c1)C(=O)Nc1nc(-c2ccc(F)c(OC3CC3)c2F)cs1 [Compound 613]
> 8.00	> 8.00	CS(=O)(=O)n1ccc(C(=O)NCC(=O)Nc2nc(-c3cc(F)c4c(c3)OCO4)cs2)c1 [Compound 616]
< 7.00	< 8.00	COC[C@H](NC(=O)c1ccn(S(C)(=O)=O)c1)C(=O)Nc1nc(-c2cc(Cl)c3c(c2)OCO3)cs1 [Compound 617]
< 8.00	< 8.00	CC(C)(C)n1ccc(C(=O)NCC(=O)Nc2nc(-c3cccc(N4CCC(C(F)F)C4)n3)cs2)c1 (stereo not drawn) [Compound 618]
< 8.00	< 8.00	CC(C)(C)n1ccc(C(=O)NCC(=O)Nc2nc(-c3cccc(N4CCc5ccncc5C4)n3)cs2)c1 [Compound 632]
< 8.00	< 8.00	CC(C)(C)n1ccc(C(=O)NCC(=O)Nc2nc(-c3cccc(N4CCC5(CC5)C4)n3)cs2)c1 [Compound 634]
< 8.00	< 8.00	CC(C)(C)n1ccc(C(=O)NCC(=O)Nc2nc(-c3cccc(N4CCCC(N5CCCC5)C4)n3)cs2)c1 (stereo not drawn) [Compound 636]
< 8.00	< 8.00	Cn1cc2c(n1)CCN(c1cccc(-c3csc(NC(=O)CNC(=O)c4ccn(C(C)(C)C)c4)n3)n1)C2 [Compound 637]
< 7.00	< 7.00	CC(C)(C)n1ccc(C(=O)NCC(=O)Nc2nc(-c3cccc(N4CCN5CCOCC5C4)n3)cs2)c1 (stereo not drawn) [Compound 638]
< 7.00	< 7.00	CN1C(=O)CC[C@H]2CN(c3cccc(-c4csc(NC(=O)CNC(=O)c5ccn(C(C)(C)C)c5)n4)n3)CC[C@H]21 [Compound 641]
< 8.00	< 8.00	CN1C(=O)CC[C@@H]2CN(c3cccc(-c4csc(NC(=O)CNC(=O)c5ccn(C(C)(C)C)c5)n4)n3)CC[C@H]21 [Compound 643]
< 8.00	< 8.00	CC(C)(C)n1ccc(C(=O)NCC(=O)Nc2nc(-c3cccc(N4CCCC5(CCOCC5)C4)n3)cs2)c1 [Compound 645]
< 7.00	< 7.00	CC(C)(C)n1ccc(C(=O)NCC(=O)Nc2nc(-c3cccc(N4CC(F)(F)C4)n3)cs2)c1 [Compound 646]
< 8.00	< 8.00	CC(C)(C)n1ccc(C(=O)NCC(=O)Nc2nc(-c3cccc(N4CCCC5(COC5)C4)n3)cs2)c1 [Compound 653]

Source: patent US20230079819A1, “COMPOUNDS AND USES THEREOF” (Foghorn Therapeutics Inc., priority 2019, published 2023)
